Results from patent US20250269000A1, “ANTI-TUMOUR RESPONSES TO CYTOKERATINS” (SCANCELL LIMITED, priority 2020, published 2025).
Where a SMILES comes first, the peptide text is derived from it. Where no end group is shown, it is not given here. [ ]: non-standard residue; d: D form. Cit = NC(=O)NCCC[C@H](N)C(=O)O

Key:
[1] = system: splenocytes of immunised HHDII/DP4 mice; test: Peptide titration (avidity of T cell response) by IFNγ ELISpot; format: cell-based, mouse; conditions: peptide titration 0.001 to 10 μg/ml
Protocol: Transgenic mouse strains expressing HHDII/DP4 and parental C57BL mice were used to screen for IFNγ responses to peptide (A and B respectively). Mice were immunised with peptide pools of up to 2-3 non-overlapping human Cyk8 citrullinated peptides over three weeks. Splenocytes were harvested 21 days after the initial dose was administered. Ex vivo responses to stimulation with human Cyk8 cit peptides was assessed by IFNγ ELISpot. Media only responses were used as a negative control. n≥3 symbol represents mean response for individual mice, line represents median value between mice. Statistical significance of peptide response was compared to media only responses for each pool and determined using ANOVA with Dunnett's post-hoc test * […], ** p<0.01, *** p<0.001, **** p<0.0001, only significant p values are shown. […]
ELISpot assays were performed using murine IFNγ capture and detection reagents according to the manufacturer's instructions (Mabtech, Sweden). […] After incubation, captured IFNγ was detected by a biotinylated anti-IFNγ antibody and developed with a streptavidin alkaline phosphatase and chromogenic substrate. […] Spots were analysed and counted using an automated plate reader (Cellular Technologies Ltd).
Significant IFNγ responses were detected to human Cyk8 citrullinated peptides in transgenic HHDII/DP4 mice (FIG. 2A) and C57BL/6 mice (FIG. 2B). […]

[2] = system: HHDII/DP4 transgenic mice; test: Ex vivo IFNγ ELISpot on splenocytes of peptide-immunised HHDII/DP4 mice; format: in vivo, mouse; conditions: for IFNγ responses detected in immunised mice: 25 μg peptide s.c. with CpG/MPLA once a week for three weeks, ELISpot 7 days after third immunisation; for IFNγ response in the presence of the CD8 antibody / IFNγ response in the presence of the anti CD4 antibody: HHDII/DP4, blocking antibody 20 μg/mL; for cross-reactivity of the response to the wt version: HHDII/DP4 mice immunised with cit peptide; for IFNγ response to citrullinated peptide compared to media only: screening, HHDII/DP4 mice, 25 μg peptide with CpG/MPLA weekly for three weeks; for T cell responses in HLA-DP4 transgenic mice / reactivity to the unmodified wildtype sequence: summary statement
Protocol: The HHDII/HLA-DP4 transgenic strain of mouse as described in patent WO2013/017545 A1 (EMMA repository, France) and C57BL/6 mice (Charles River, UK) were used, aged between 8 and 12 weeks, and cared for by the staff at Nottingham Trent University. All work was carried out under a Home Office project licence. Peptides were dissolved in 10% dimethylformamide to 1 mg/mL and then emulsified (a series of dilutions) with the adjuvant CpG and MPLA 6 μg/mouse of each (Invivogen, UK). Peptides (25 μg/mouse) were injected subcutaneously at the base of the tail.
ELISpot assays were performed using murine IFNγ capture and detection reagents according to the manufacturer's instructions (Mabtech, Sweden). In brief, anti-IFNγ antibody was coated onto wells of a 96-well Immobilin-P plate. Synthetic peptides (at a variety of concentrations) and 5×10^5 per well splenocytes were added to the wells of the plate in triplicate. LPS at 5 μg/mL was used as a positive control. Peptide pulsed target cells were added where relevant at 5×10^4 per well in triplicate and plates incubated for 40 hours at 37° C. After incubation, captured IFNγ was detected by a biotinylated anti-IFNγ antibody and developed with a streptavidin alkaline phosphatase and chromogenic substrate. Lipopolysaccharide (LPS; 5 μg/mL) was used as a positive control. For blocking studies, anti-CD4 blocking antibody (RPA-T4) and anti-CD8 blocking antibody (2.43) from Bioxcell were used at 20 μg/mL. Spots were analysed and counted using an automated plate reader (Cellular Technologies Ltd).
HHDII/DP4 and C57BL/6 mice were immunised with human citrullinated peptides in combination with CpG/MPLA as an adjuvant. 25 μg of peptide was administered subcutaneously as a single immunisation given once a week for three weeks Mice were culled 7 days after the third immunisation, the immune response to each peptide was assessed by ex vivo IFNγ ELISpot (FIG. 2). We have previously shown that citrullinated peptides can induce responses in the transgenic DR4 mouse strain. Given that different mouse strains have different MHC repertoires, the transgenic strain HHDII/DP4 and non-transgenic C57BL/6 mice were used for screening.
To determine if the immune response to the Cyk8 peptides is specific to the citrullinated peptide and not the wild type (wt) version, HHDII/DP4 transgenic mice were immunised with Cyk8 101-120 cit, 133-151 cit, 217-236 cit, 371-388 cit, 381-399 cit or Cyk8 101 wt, 133-151 wt, 371-388 wt peptides. HHDII/DP4 mice received 25 μg peptide with CpG/MPLA subcutaneously once a week for three weeks. Mice were culled 7 days after the third immunisation, the immune response to each peptide was assessed by ex vivo ELISpot (FIGS. 3A and 3B).
To determine whether the response to Cyk8 8-26 cit, Cyk8 101-120 cit, Cyk8 133-151 cit, Cyk8 371-388 cit, Cyk8 381-399 cit is CD4 dependent HHDII/DP4 transgenic mice and C57BL/6 mice received 25 μg peptide subcutaneously in combination with CpG/MPLA as an adjuvant, once a week for three weeks (FIG. 6A HHDII/DP4, FIG. 6B C57BL/6). Mice were culled 7 days after the third immunisation, an ELISpot assay was performed in the presence of an anti CD4 or CD8 antibody. […]

[3] = system: B16 HHDII/iDP4 tumour cells; test: Tumour challenge, B16 HHDII/iDP4 in HHDII/DP4 mice; format: in vivo; conditions: immunised tumour bearing HHDII/DP4 mice
Source text: HHDII/DP4 mice were challenged with B16 tumour with IFNγ inducible DP4. Four days later the HHDII/DP4 mice were immunised with Cyk8 371-388 cit or Cyk8 371-388 wt peptide on days 4, 11 and 18. Overall survival (A), tumour volume (B) at day 29 and tumour volume throughout the study (C), post tumour implant are shown for unimmunised control mice and mice immunised with either Cyk8 371-388 cit peptide or Cyk8 371-388 wt peptide. Statistical differences between immunised and control mice were determined by Mantel-Cox test, p values are shown. The tumour volume medians and p values are shown as determined by Mann Whitney U test, n=10 in all group.
HHDII/DP4 mice were challenged with B16 tumour with IFNγ inducible DP4. Four days later the HHDII/DP4 mice were immunised with Cyk8 371-388 cit peptide on days 4, 11 and 18. Overall survival (A), tumour volume (B) at day 24 and tumour volume throughout the study (C), post tumour implant are shown for unimmunised control mice and mice immunised with Cyk8 101-120 cit peptide. Statistical differences between immunised and control mice were determined by Mantel-Cox test, p values are shown. The tumour volume medians and p values are shown as determined by Mann Whitney U test, n=10 in all group.
For tumour challenge experiments, mice were challenged with 1×10^5 B16 HHDII/iDP4 cells subcutaneously on the right flank […] before primary immunisation (unless stated otherwise) and then immunised as described above. Tumour growth was monitored at 3-4 days intervals and mice humanely euthanised once tumour reached ≥10 mm in diameter.
The effect of immunisation with Cyk8 371-388 (cit and wt) on the growth of the mouse B16 melanoma cell line transfected with IFNγ inducible human DP4 (iDP4) was assessed in HHDII/DP4 transgenic mice (FIG. 9A). […]
The effect of immunisation with Cyk8 101-120 cit on the growth of the mouse B16 melanoma cell line transfected with IFNγ inducible human DP4 (iDP4) was assessed in HHDII/DP4 transgenic mice (FIG. 10A). […]

Compound | IFNγ responses detected in immunised mice [2] | cross-reactivity of the response to the wt version [2] | IFNγ response to citrullinated peptide compared to media only [2] | T cell responses in HLA-DP4 transgenic mice [2] | reactivity to the unmodified wildtype sequence [2] | associated toxicity [3] | other results
cit-SNMDNMFESYINNL-cit-cit-QL ([Cit]SNMDNMFESYINNL[Cit][Cit]QL) [Cyk8 133-151 cit, Cyk8 133-151, citrullinated at position 133, 148 and 149] | Moderate to high | no cross-reactivity | significant immune responses | potent T cell responses | minimal reactivity |  | log EC50 (avidity of T cell response) [1]: -6.0 to-6.5 M; IFNγ response in the presence of the CD8 antibody [2]: not significantly reduced; IFNγ response in the presence of the anti CD4 antibody [2]: not significantly reduced
CC[C@H](C)[C@H](NC(=O)[C@H](CCC(=O)O)NC(=O)[C@@H](NC(=O)[C@H](CC(=O)O)NC(=O)[C@H](CC(C)C)NC(=O)[C@H](C)NC(=O)[C@H](CC(C)C)NC(=O)[C@H](CCCCN)NC(=O)[C@@H](NC(=O)[C@H](CC(N)=O)NC(=O)[C@H](CCSC)NC(=O)[C@H](CC(C)C)NC(=O)[C@H](CCC(=O)O)NC(=O)[C@H](CCC(N)=O)NC(=O)[C@H](Cc1ccc(O)cc1)NC(=O)[C@H](CCC(=O)O)NC(=O)[C@H](CCCNC(N)=O)NC(=O)[C@@H](N)CC(C)C)C(C)C)[C@@H](C)CC)C(=O)O [Cyk8 371-388 cit, L-cit-EYQELMNVKLALDIEI] (H-L[Cit]EYQELMNVKLALDIEI-OH) |  |  |  |  |  | no associated toxicity | 
KLALDIEIATY-cit-KLLEGEE (KLALDIEIATY[Cit]KLLEGEE) [Cyk8 381-399 cit, Cyk8 381-399, citrullinated at position 392] | Moderate to high | no cross-reactivity | significant immune responses | potent T cell responses | minimal reactivity |  | IFNγ response in the presence of the CD8 antibody [2]: significantly reduced; IFNγ response in the presence of the anti CD4 antibody [2]: significantly reduced
LTDEINFL-cit-QLYEEEI-cit-ELQ (LTDEINFL[Cit]QLYEEEI[Cit]ELQ) [Cyk8 217-236 cit, Cyk8 217-236, citrullinated at positions 225 and 233] | Moderate to high | no cross-reactivity | significant immune responses | potent T cell responses | minimal reactivity |  | log EC50 (avidity of T cell response) ([1]; unit not given): -5.0 to-5.9
RSNMDNMFESYINNLRRQL (listed as Homo sapiens) [Cyk8 131-15 wt, wild type (unmodified) Cyk8 133-151 peptide, reference compound] | Low to moderate |  |  |  |  |  | 
KFASFIDKVRFLEQQNKMLE (listed as Homo sapiens) [Cyk8 101-120 wt, wild type (unmodified) Cyk8 101-120 peptide, reference compound] | Low to moderate |  |  |  |  |  | 
CC[C@H](C)[C@H](NC(=O)[C@H](CCC(=O)O)NC(=O)[C@@H](NC(=O)[C@H](CC(=O)O)NC(=O)[C@H](CC(C)C)NC(=O)[C@H](C)NC(=O)[C@H](CC(C)C)NC(=O)[C@H](CCCCN)NC(=O)[C@@H](NC(=O)[C@H](CC(N)=O)NC(=O)[C@H](CCSC)NC(=O)[C@H](CC(C)C)NC(=O)[C@H](CCC(=O)O)NC(=O)[C@H](CCC(N)=O)NC(=O)[C@H](Cc1ccc(O)cc1)NC(=O)[C@H](CCC(=O)O)NC(=O)[C@H](CCCNC(=N)N)NC(=O)[C@@H](N)CC(C)C)C(C)C)[C@@H](C)CC)C(=O)O [Cyk8 371-388 wt, LREYQELMNVKLALDIEI, reference compound] (H-LREYQELMNVKLALDIEI-OH) |  |  |  |  |  | no associated toxicity | 
CC[C@H](C)[C@H](NC(=O)[C@H](Cc1ccccc1)NC(=O)[C@H](CO)NC(=O)[C@H](C)NC(=O)[C@H](Cc1ccccc1)NC(=O)[C@@H](N)CCCCN)C(=O)N[C@@H](CC(=O)O)C(=O)N[C@@H](CCCCN)C(=O)N[C@H](C(=O)N[C@@H](CCCNC(N)=O)C(=O)N[C@@H](Cc1ccccc1)C(=O)N[C@@H](CC(C)C)C(=O)N[C@@H](CCC(=O)O)C(=O)N[C@@H](CCC(N)=O)C(=O)N[C@@H](CCC(N)=O)C(=O)N[C@@H](CC(N)=O)C(=O)N[C@@H](CCCCN)C(=O)N[C@@H](CCSC)C(=O)N[C@@H](CC(C)C)C(=O)N[C@@H](CCC(=O)O)C(=O)O)C(C)C [Cyk8 101-120 cit, KFASFIDKV-cit-FLEQQNKMLE] (H-KFASFIDKV[Cit]FLEQQNKMLE-OH) |  |  |  |  |  | no associated toxicity | 
